# Reference: PubChem BioAssay AID743396 (Broad Institute, 2014)
# Activity calls are given as the source filed them.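 The calls were made as follows: active = fitted curve reaches a 40% rise in fluorescent cells at or below the top valid dose; inactive = opposite-direction effect, or the rest.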
# Assay: autofluorescent compounds in non-GFP fibroblasts, dose response, artefact control for X-chromosome reactivation project, imaging, mTEFS fibroblasts, cherry-pick (AID 743396);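 also: raw share of Hoechst-counted cells scored GFP positive without control normalization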
# Details: mTEFS fibroblasts autofluorescence, GFP-channel imaging, 3 days; at 19.5 µM (top of the series)
row,SMILES,% fluorescent cells increase
1,Cc1ccc2[nH]c(=S)n(-c3cccnc3)c(=O)c2c1,0.016% (inactive)
2,O=C(Cc1ccccn1)N1CCCCN2[C@H](C1)[C@@H](c1ccc(-c3ccccc3F)cc1)[C@@H]2CO,0.674% (inactive)
3,OCC[n+]1c2ccccc2nc2ccc(N3CCOCC3)cc21,0% (inactive)
4,Cc1cc(=O)oc2cc3c(cc12)CCCN3,0.269% (inactive)

# Same assay, conditions: mTEFS fibroblasts autofluorescence, GFP-channel imaging, 3 days; at 19.5 µM (top of the series); cells pretreated with 5-aza-dC
row,SMILES,% fluorescent cells increase
1,Cc1ccc(C)c(OCCC(=O)Nc2cc(S(=O)(=O)N3CCCCC3)ccc2C)c1,13% (inactive)
2,C[C@H](CO)N1C[C@H](C)[C@H](CN(C)S(=O)(=O)c2ccccc2)Oc2ccc(NS(=O)(=O)c3ccc(Cl)cc3)cc2C1=O,0.016% (inactive)
3,CC(C)CCN1CCN(Cc2cc3ccccc3[nH]2)CC1CCO (configuration not stated),0% (inactive)
4,COc1cc(CNc2nc3ccccc3n2C)cc(OC)c1OC,0% (inactive)
5,O=c1c2ccccc2nnn1Cc1ccc2ccccc2c1,0.015% (inactive)
6,COc1ccc(NC(=O)C(C)N2C(=O)c3ccccc3C2=O)c(OC)c1 (configuration not stated),0.081% (inactive)
7,O=C1N(c2ccccc2)C[C@@H]2C[C@@H](c3cc4ccccc4o3)N3CCC[C@@]123,-0.007% (inactive)
8,COC(=O)c1ccc(-n2c(C)cc(C(=O)COC(=O)C3=COCCO3)c2C)cc1,-0.007% (inactive)
9,COCCCn1c(C)cc(C(=O)COC(=O)CCc2nc3ccccc3c(=O)[nH]2)c1C,3.52% (inactive)
10,Cc1ccc(/C=C/C(=O)N2CCN(S(=O)(=O)/C=C/c3ccccc3)CC2)o1,0.017% (inactive)
11,O=C(N/N=C/c1ccc(O)c2ncccc12)c1cccc(Br)c1,-0.003% (inactive)
12,COc1ccc(N=Nc2ccc(O)c(P(=O)(c3ccccc3)c3ccccc3)c2)cc1,0% (inactive)
13,C[C@@H]1CN([C@@H](C)CO)C(=O)c2cc(NS(=O)(=O)c3cn(C)cn3)ccc2O[C@@H](C)CCCCO[C@H]1CN(C)C(=O)c1ccccc1,0% (inactive)
14,C=CCn1c(SCC(=O)N(CC)C2CCS(=O)(=O)C2)nc2sc3c(c2c1=O)CCC3 (configuration not stated),0.034% (inactive)
15,COc1ccccc1CNC(=O)COC(=O)COc1ccccc1F,1.84% (inactive)
16,Cc1ccc(S(=O)(=O)Nc2ccc3c(c2)C(=O)N([C@@H](C)CO)C[C@@H](C)[C@@H](CN(C)Cc2ccc(C(=O)Nc4ccccc4N)cc2)O3)cc1,0% (inactive)
17,CSc1ccc(CNCC2CCCO2)cc1 (configuration not stated),0.293% (inactive)
18,NS(=O)(=O)c1cccc(-n2cnnn2)c1,0% (inactive)
19,C[C@@H]1CN([C@@H](C)CO)C(=O)c2ccccc2-c2ccccc2CO[C@@H]1CN(C)C(=O)Nc1ccc2c(c1)OCO2,-0.044% (inactive)

row,SMILES,% fluorescent cells increase
1,Nc1ccccc1Sc1ccc(C(F)(F)F)cc1[N+](=O)[O-],0% (inactive)
2,Oc1cc2c(c(Cl)c1O)CCNCC2c1ccccc1 (configuration not stated),-0.007% (inactive)
3,Cc1ccc(N2C(=O)C3C4C=CC(CNC(=S)N5CCN(c6ccccc6)CC5)(O4)C3C2=O)cc1 (configuration not stated),1.71% (inactive)
4,CC(O)(c1ccccc1)c1nc(-c2ccncc2)cs1 (configuration not stated),0.38% (inactive)
5,CCC(C(=O)Nc1cc(OC)c(NC(=O)c2ccccc2)cc1OC)c1ccccc1 (configuration not stated),0.022% (inactive)
6,CCOC(=O)C1=C(C)NC(=S)NC1/C=C/c1ccccc1 (configuration not stated),-0.004% (inactive)
7,CCN(CC)c1ccc(/C=C/C(=O)C2C(=O)C=C(C)OC2=O)cc1 (configuration not stated),1.2% (inactive)
8,O=C(Nc1ccc(F)cc1)N1CC(=O)N2[C@H](CO)[C@H](c3ccc(C#Cc4ccc(F)cc4)cc3)[C@@H]2C1,-0.166% (inactive)
9,CCc1ccc(N2CC(C(=O)Nc3cc(C)on3)CC2=O)cc1 (configuration not stated),0.015% (inactive)
10,O=C(c1nc(SCc2ccc([N+](=O)[O-])cc2)n2ccccc12)C(F)(F)F,0.04% (inactive)
11,CCOC(=O)c1cnc(-c2ccc(C(F)(F)F)cn2)[nH]c1=O,11.4% (inactive)
12,Cc1cc(NC(=O)c2ccccc2)n(-c2nc3ccccc3[nH]2)n1,0.023% (inactive)
13,Cc1ccccc1C1c2[nH]c3ccccc3c2CCN1Cc1cccn1-c1ncccn1 (configuration not stated),0.002% (inactive)
14,COC(=O)c1ccc(NC(=O)c2nc(S(=O)(=O)Cc3cccc(C)c3)ncc2Cl)cc1,-0.007% (inactive)
15,CC(C)c1ccc(N2C(=O)/C(=C/N(C)C)SC2=S)cc1,0.026% (inactive)
16,O=C(COC(=O)c1cc(=O)[nH]c(=O)[nH]1)Nc1cccc(S(=O)(=O)N2CCCCC2)c1,0% (inactive)
17,C/C(=N\NC(=O)CC1N=C(Cc2ccccc2)NNC1=O)c1ccc(Br)cc1 (configuration not stated),0.037% (inactive)
18,CC(C)N1C(=O)C(=O)N(CC(=O)N2CCc3ccccc32)C1=O,0.029% (inactive)
19,O=C1CSC(c2cccnc2)N1Cc1ccc(Cl)cc1Cl (configuration not stated),0% (inactive)
